# Test results reported in patent US20180196033A1, “CELL TRACKING REAGENTS AND THEIR METHODS OF USE” (LIFE TECHNOLOGIES CORPORATION, priority 2015, published 2018).
# Where “and” joins values, the source holds several entries; their conditions need not be identical. Equal entries are not always repeated.
# Test system: Human peripheral blood mononuclear cells (PBMCs)
# Assay: Generational tracking of cell proliferation by dye dilution, flow cytometry
# Assay type: cell-based
# Conditions: PBMCs stained with 10 mM stock at 1 μL per mL of cells, 20 min; stimulated with Interleukin-2 and CD3/CD28 DYNABEADS; 355 nm laser, 450/50 bandpass emission filter
# Procedure: 20 mL whole blood were added to 20 mL DPBS and mixed well. 15 mL FICOLL-PAQUE® PLUS (GE Healthcare) were added to each of two 50 mL centrifuge tubes. 20 mL of the diluted whole blood was carefully layered on top. The tube containing the whole blood was centrifuged for 30 min at 400×g and the peripheral blood mononuclear cell (PBMC) layer was carefully removed. The cells were resuspended in 25 mL DPBS in a 50 mL centrifuge tube and centrifuged for 5 min at 400×g. The supernatant was decanted and the cells were resuspended in 10 mL DPBS. Cells were counted on a COUNTESS Automated Cell Counter (Thermo Fisher Scientific) with the concentration adjusted to 1×10^6 cells/mL in DPBS.
# 20 μL anhydrous DMSO was added to a vial of dry Compound 1 (64 μg) at room temperature. 1 mL of unstained cells was reserved as a control. Cells were labeled with 1 μL of 10 mM Compound 1, per milliliter of cell suspension. The tubes were immediately vortexed for 30 sec and the cells were incubated for 20 min at room temperature, protected from light. […]
# 2 mL of each sample were removed by first mixing sample with a pipet then transferring them to their own tubes. […] Cells were counted on a COUNTESS Automated Cell Counter with the concentration adjusted to 1×10^6 cells/mL in DPBS. […]
smiles,measurement,value
COc1ccc2cc(C(=O)ON3C(=O)CCC3=O)c(=O)oc2c1 [Compound 1],"time over which cell proliferation was followed (discrete peaks of successive generations of live, CD4 positive cells)",7 days and 6 days
